Key:
NB12 (Neuroblastoma) [1] = assay: Bliss excess, mean over the matrix (fraction); higher = more synergy
Procedure, shortened: (§1)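 Bliss excess equals the observed combination effect minus the expected value EA + EB − EA·EB, where EA and EB are the effects of each agent alone. Combination Emax is the second-highest inhibition within the matrix. Inhibition was scaled from CellTiter-Glo 2.0 luminescence, with 0 set by vehicle wells and 1 by blank wells, after 72 hours of two-drug dosing of cells plated in 1536-well plates.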

SK-MEL-2 (Melanoma) [2] = assay: as above
Procedure, shortened: as §1

NB12 (Neuroblastoma) [3] = assay: combination Emax (second highest fraction inhibited in the dose matrix, 72 h); higher = more inhibition; extreme values may be limits of the assay
Procedure, shortened: as §1

SK-MEL-2 (Melanoma) [4] = assay: as above
Procedure, shortened: as §1

GB-1 (Glioblastoma) = assay: as above
Procedure, shortened: as §1

[5] = tested on: LK-2 (Squamous Cell Lung Carcinoma); assay: as above
Procedure, shortened: as §1

[6] = tested on: NCI-H23 (Lung Adenocarcinoma); assay: as above
Procedure, shortened: as §1

SF539 (Glioblastoma) = assay: as above
Procedure, shortened: as §1

[7] = tested on: OAW-42 (Ovarian Carcinoma); assay: as above
Procedure, shortened: as §1

[8] = tested on: PANC-03-27 (Pancreatic Carcinoma); assay: as above
Procedure, shortened: as §1

SMILES | Bliss excess (NB12 (Neuroblastoma) [1]) | Bliss excess (SK-MEL-2 (Melanoma) [2]) | combination Emax (NB12 (Neuroblastoma) [3]) | combination Emax (SK-MEL-2 (Melanoma) [4]) | combination Emax (GB-1 (Glioblastoma)) | combination Emax [5] | combination Emax [6] | combination Emax (SF539 (Glioblastoma)) | combination Emax [7] | combination Emax [8]
CN(C)CCCOc1ccc(-c2ccc3ncc4c(c3c2)n(C2CCOCC2)c(=O)n4C)cn1 [AZD0156] + O=C(c1cc(Cc2n[nH]c(=O)c3ccccc23)ccc1F)N1CCN(C(=O)C2CC2)CC1 [Olaparib] (first compound max 3 µM, partner max 3 µM) | 0.0534 | -0.045 | 0.363 | 0.0599 | 0.238 | 0.372 | 0.117 | 0.501 | 0.282 | 0.225
C=CCn1c(=O)c2cnc(Nc3ccc(N4CCN(C)CC4)cc3)nc2n1-c1cccc(C(C)(C)O)n1 [AZD1775] + C1CN(CCC1(C(=O)N[C@@H](CCO)C2=CC=C(C=C2)Cl)N)C3=NC=NC4=C3C=CN4 [Capivasertib] (first compound max 3 µM, partner max 3 µM) | -0.0491 | -0.0472 | 0.746 | 0.637 | 0.625 | 0.941 | 0.908 | 0.967 | 0.467 | 0.771
COc1nnc2ccc(N3CCC(c4ccc(OCCN5CCN(C)C(=O)[C@H]5C)cc4)CC3)nn12 [AZD5153] + C=CCn1c(=O)c2cnc(Nc3ccc(N4CCN(C)CC4)cc3)nc2n1-c1cccc(C(C)(C)O)n1 [AZD1775] (first compound max 1 µM, partner max 1 µM) | -0.0313 | -0.116 | 0.958 | 0.635 | 0.641 | 0.929 | 0.963 | 0.944 | 0.615 | 0.604
COc1nnc2ccc(N3CCC(c4ccc(OCCN5CCN(C)C(=O)[C@H]5C)cc4)CC3)nn12 [AZD5153] + CC1(C)CCC(CN2CCN(c3ccc(C(=O)NS(=O)(=O)c4ccc(NCC5CCOCC5)c([N+](=O)[O-])c4)c(Oc4cnc5[nH]ccc5c4)c3)CC2)=C(c2ccc(Cl)cc2)C1 [Venetoclax] (first compound max 1 µM, 7x7, partner max 1 µM) | 0.0928 | -0.0035 | 0.971 | 0.519 | 0.256 | 0.396 | 0.651 | 0.604 | 0.35 | 0.255
COc1nnc2ccc(N3CCC(c4ccc(OCCN5CCN(C)C(=O)[C@H]5C)cc4)CC3)nn12 [AZD5153] + CCN(CCO)CCCOc1ccc2c(Nc3cc(CC(=O)Nc4cccc(F)c4)[nH]n3)ncnc2c1 [AZD2811] (first compound max 1 µM, 7x7, partner max 1 µM) | 0.0269 | -0.0912 | 0.937 | 0.485 | 0.243 | 0.625 | 0.666 | 0.699 | 0.459 | 0.179
COc1nnc2ccc(N3CCC(c4ccc(OCCN5CCN(C)C(=O)[C@H]5C)cc4)CC3)nn12 [AZD5153] + C[C@@H]1COCCN1C2=NC(=NC(=C2)C3(CC3)[S@](=N)(=O)C)C4=C5C=CNC5=NC=C4 [AZD6738] (first compound max 1 µM, 7x7, partner max 10 µM) | 0.0067 | 0.0037 | 0.958 | 0.693 | 0.678 | 0.784 | 1 | 0.882 | 0.702 | 0.489
COc1nnc2ccc(N3CCC(c4ccc(OCCN5CCN(C)C(=O)[C@H]5C)cc4)CC3)nn12 [AZD5153] + Cc1c2c(nn1C)CSCc1cc(n(C)n1)CSc1cc(c3ccccc3c1)OCCCc1c(C(=O)O)n(C)c3c-2c(Cl)ccc13 [AZD5991] (first compound max 1 µM, 7x7, partner max 1 µM) | 0.0267 | -0.0198 | 0.942 | 0.984 | 0.288 | 0.413 | 0.997 | 0.638 | 0.615 | 0.252
COc1nnc2ccc(N3CCC(c4ccc(OCCN5CCN(C)C(=O)[C@H]5C)cc4)CC3)nn12 [AZD5153] + Cn1cnc2c(F)c(Nc3ccc(Br)cc3Cl)c(C(=O)NOCCO)cc21 [Selumetinib] (first compound max 1 µM, 7x7, partner max 10 µM) | -0.0428 | -0.0349 | 0.799 | 0.926 | 0.288 | 0.6 | 0.852 | 0.653 | 0.426 | 0.398
NC1(C(=O)N[C@@H](CCO)c2ccc(Cl)cc2)CCN(c2ncnc3[nH]ccc23)CC1 [Capivasertib] + CC(=O)c1c(C)c2cnc(Nc3ccc(N4CCNCC4)cn3)nc2n(C2CCCC2)c1=O [Palbociclib] (first compound max 10 µM, 7x7, partner max 10 µM) | 0.0139 | -0.0408 | 0.399 | 0.0717 | 0.476 | 0.205 | 0.512 | 0.578 | 0.548 | 0.283

— the supplement of paper PMC11061612
